Target: human PI3Kdelta p110 catalytic subunit (Rat-1 cells) (Homo sapiens (Human), UniProt O00329)
Experiment: Cellular assay PI3Kdelta, p-Akt(S473) SureFire in Rat-1_PI3Kdelta cells
Assay type: cell-based
Conditions: p-AKT(Ser473), 1 h treatment; read-out: Rat1-PI3Kd/IC50
Source text: AlphaScreen (Amplified Luminescent Proximity Homogeneous Assay, ALPHA, Perkin Elmer) is a non-radioactive bead-based proximity assay technology to study biomolecular interactions in a homogenous microtiter plate format. The brand name SureFire denotes AlphaScreen assays that are adapted to quantify the phosphorylation of endogenous cellular proteins in cell lysates, by using matched antibody pairs, which consist of an anti-phospho-kinase and an anti-kinase antibody. The assay allows characterization of kinase signaling in cells as well as measurement of kinase inhibitor effects. The AlphaScreen technology provides several advantages over standard assay techniques such as ELISA, as it avoids time-consuming washing procedures and reduces plate handling. Furthermore, it is miniaturizable at least to a 384-well format and provides sensitivity down to the femtomolar range, dependent on the affinity of the antibodies included in the individual AlphaScreen SureFire assay kit. High sensitivity is reached by an intrinsic amplification mechanism, which involves production of singlet oxygen molecules. SureFire assay kits are commercially available for specific targets and include pairs of validated antibodies (PerkinElmer). This report describes common procedures applied for AlphaScreen SureFire assays and respective semi-automated steps for routine kinase inhibitor profiling in cell-based assays.
The Rat-1 cell lines stably overexpressing activated PI3K class I isoforms Rat-1 pBABEpuro Myr-HA-hp110 delta (Rat-1_PI3Kdelta) and Rat-1 pBABEpuro Myr-HA-hp110alpha (Rat-1_PI3Kalpha) and Rat-1 pBABEpuro Myr-HA-hp110 beta (Rat-1_PI3beta) were prepared as described (Maira S M, Stauffer F, Brueggen J, Furet P, Schnell C, Fritsch C, Brachmann S, Chène P, de Pover A, Schoemaker K, Fabbro D, Gabriel D, Simonen M, Murphy L, Finan P, Sellers W, Garcia-Echeverria C (2008), Mol Cancer Ther. 7:1851-63 and Maira S M, Pecchi S, Brueggen J, Huh K, Schnell C, Fritsch C, Nagel T, Wiesmann M, Brachmann S, Dorsch M, Chène P, Schoemaker K, De Pover A, Menezes D, Fabbro D, Sellers W, Garcia-Echeverria C, Voliva CF (2011), Mol. Cancer Ther., accepted). All cell lines were cultivated in complete growth medium (DMEM high glucose, 10% (v/v) fetal bovine serum, 1% (v/v) MEM NEAA, 10 mM HEPES, 2 mM L-glutamine, puromycin (10 μg/mL for Rat-1_PI3Kdelta and Rat-1_PI3Kalpha, 4 ug/mL for Rat-1_PI3beta), 1% (v/v) Pen/Strep) to 90% confluency at 37° C./5% CO2/90% humidity in a humidified CO2 incubator and were split twice a week.
The following materials were used for p-AKT(5473) detection in Rat-1 cell lysates: Dulbecco's modified Eagle's medium (DMEM) high glucose (Gibco Invitrogen, Basel, Switzerland, Cat. No. 41965), Heat Inactivated Fetal Bovine Serum, Qualified (HI FBS; Gibco Invitrogen, Basel, Switzerland, Lot. No. 16140), MEM non essential amino acids (NEAA; Gibco Invitrogen, Basel, Switzerland, Cat. No. 11140), HEPES (Gibco Invitrogen, Basel, Switzerland, Cat. No. 15630), Penicillin/Streptomycin (Pen/Strep, 100x; Gibco Invitrogen, Basel, Switzerland, Cat. No. 15140-122), L-Glutamine (Gibco Invitrogen, Basel, Switzerland, Cat. No. 25030), Puromycin (Sigma Aldrich, Buchs, Switzerland, Cat. No. P9620), DMSO (MERCK, Dietikon, Switzerland, Cat. No. 8.02912.2500), H2O, MilliQ-H2O unless otherwise stated (MILLIPORE QGARDOOR1, Millipore, Zug, Switzerland), Bovine serum albumine (BSA; Sigma Aldrich, Buchs, Switzerland Cat. No. A8412), SureFire p-Akt ½ (Ser473) Assay Kit (PerkinElmer, Schwerzenbach, Switzerland, Cat. No. TGRAS50K).
The p-Akt(5473) SureFire assay measures the phosphorylation of endogenous cellular Akt ½ at Ser473 in cell lysates. Using Rat-1 cells stably expressing myr-HA-tagged versions of the human PI3Kdelta, PI3Kalpha, or PI3Kbeta p110 catalytic subunit isoforms, the assay was developed as a two-plate protocol in a 384-well format.

Chain of human PI3Kdelta p110 catalytic subunit (Rat-1 cells) (O00329 whole entry): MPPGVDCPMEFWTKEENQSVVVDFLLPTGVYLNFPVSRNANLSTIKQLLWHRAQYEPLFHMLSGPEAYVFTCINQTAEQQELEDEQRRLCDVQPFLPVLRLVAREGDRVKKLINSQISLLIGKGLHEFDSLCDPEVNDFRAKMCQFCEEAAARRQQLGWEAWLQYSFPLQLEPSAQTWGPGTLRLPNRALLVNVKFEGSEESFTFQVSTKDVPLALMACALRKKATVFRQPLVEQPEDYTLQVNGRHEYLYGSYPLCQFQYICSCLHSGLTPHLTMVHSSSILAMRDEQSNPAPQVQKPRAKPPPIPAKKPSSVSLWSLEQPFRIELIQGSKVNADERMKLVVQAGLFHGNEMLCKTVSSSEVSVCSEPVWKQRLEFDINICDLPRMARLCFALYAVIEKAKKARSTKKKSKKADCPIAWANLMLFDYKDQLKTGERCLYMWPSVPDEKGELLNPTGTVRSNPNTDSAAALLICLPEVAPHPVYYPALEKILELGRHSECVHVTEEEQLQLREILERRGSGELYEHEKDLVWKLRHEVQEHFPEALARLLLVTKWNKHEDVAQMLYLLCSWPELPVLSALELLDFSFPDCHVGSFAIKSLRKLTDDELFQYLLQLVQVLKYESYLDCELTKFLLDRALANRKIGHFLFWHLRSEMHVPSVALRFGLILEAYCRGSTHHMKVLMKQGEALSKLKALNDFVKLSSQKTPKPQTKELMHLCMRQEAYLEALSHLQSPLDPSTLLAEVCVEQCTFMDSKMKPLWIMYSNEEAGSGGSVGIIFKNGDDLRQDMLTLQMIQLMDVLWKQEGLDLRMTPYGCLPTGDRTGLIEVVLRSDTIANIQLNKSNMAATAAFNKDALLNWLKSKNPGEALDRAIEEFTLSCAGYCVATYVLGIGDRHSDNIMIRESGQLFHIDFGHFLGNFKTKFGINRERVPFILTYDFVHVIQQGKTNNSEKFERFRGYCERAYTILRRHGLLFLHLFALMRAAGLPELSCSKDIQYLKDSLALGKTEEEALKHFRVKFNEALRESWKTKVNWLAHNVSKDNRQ
Chain of human PI3Kdelta p110 catalytic subunit (Rat-1 cells) (Q63787 whole entry partner): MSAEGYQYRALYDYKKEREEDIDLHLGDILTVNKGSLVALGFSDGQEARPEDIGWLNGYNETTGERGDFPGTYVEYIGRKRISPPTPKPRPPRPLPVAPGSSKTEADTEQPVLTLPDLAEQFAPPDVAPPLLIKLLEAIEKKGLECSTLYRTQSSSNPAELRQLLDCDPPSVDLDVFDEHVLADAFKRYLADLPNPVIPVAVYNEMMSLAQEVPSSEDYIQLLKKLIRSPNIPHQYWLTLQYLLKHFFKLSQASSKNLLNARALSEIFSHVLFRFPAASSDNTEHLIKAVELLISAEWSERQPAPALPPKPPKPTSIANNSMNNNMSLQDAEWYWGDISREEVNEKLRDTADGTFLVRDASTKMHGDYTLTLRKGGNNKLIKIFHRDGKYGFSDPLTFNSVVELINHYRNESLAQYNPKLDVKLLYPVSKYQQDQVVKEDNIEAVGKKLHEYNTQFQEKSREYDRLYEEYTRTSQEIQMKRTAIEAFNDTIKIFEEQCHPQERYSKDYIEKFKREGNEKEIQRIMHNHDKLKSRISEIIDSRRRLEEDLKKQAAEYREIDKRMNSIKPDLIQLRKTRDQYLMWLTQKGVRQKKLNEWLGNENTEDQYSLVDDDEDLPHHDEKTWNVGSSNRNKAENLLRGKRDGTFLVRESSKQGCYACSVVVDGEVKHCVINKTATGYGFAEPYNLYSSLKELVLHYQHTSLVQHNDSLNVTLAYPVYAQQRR

Structure (SMILES)	IC50 [nM]
CC[C@H]1[C@H](c2nccs2)OC(=O)N1c1cc(-c2cnc(N)nc2C(F)(F)F)nc(N2CCOCC2)n1 [Example 7]	123
CC1C(c2cccnc2)OC(=O)N1c1cc(-c2cnc(N)nc2C(F)(F)F)nc(N2CCOCC2)n1 (stereo not drawn) [Example 9]	11
C[C@H]1[C@H](c2ccccc2)OC(=O)N1c1cc(-c2cnc(N)nc2C(F)(F)F)nc(N2CCOCC2)n1 [Example 5]	119
COc1ccc([C@@H]2OC(=O)N(c3cc(-c4cnc(N)nc4C(F)(F)F)nc(N4CCOCC4)n3)[C@H]2CO)cc1 [Example 3, (4S,5S)-3-(2′-Amino-2-morpholino-4′-(trifluoromethyl)-[4,5′-bipyrimidin]-6-yl)-4-(hydroxymethyl)-5-(4-methoxyphenyl)oxazolidin-2-one]	6
COCCOc1ccc([C@@H]2OC(=O)N(c3cc(-c4cnc(N)nc4C(F)(F)F)nc(N4CCOCC4)n3)[C@H]2CO)cc1 [Example 12]	4
Nc1ncc(-c2cc(N3C(=O)O[C@@H](c4ccccc4)[C@@H]3CO)nc(N3CCOCC3)n2)c(C(F)(F)F)n1 [Example 10]	22

Source: patent publication US10202371B2, “Oxazolidin-2-one-pyrimidine derivatives and the use thereof as phosphatidylinositol-3-kinase inhibitors” (Novartis AG, priority 2012, dated 2019)
